According to the supplement of paper PMC12317010:
Where a name gives a salt, the structure may show the parent alone.

Assay: collision cross section in nitrogen (drift tube, single-field); higher = larger gas-phase ion size
[1] = ion type: [M-H], ion source: ESI, ion mode: Negative
[2] = ion type: [M+H], ion source: APCI, ion mode: Positive
[3] = ion type: [M+H], ion source: ESI, ion mode: Positive
[4] = ion type: [M+Na], ion source: ESI, ion mode: Positive
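Note: chemical standards at 10 µM analysed by drift tube IMS-QTOF MS in about 3.95 torr nitrogen, mean of duplicate injections differing ≤1%, mass error below 10 ppm.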

Row | collision cross section in nitrogen [3] [Å²] | Compound | collision cross section in nitrogen [1] [Å²] | collision cross section in nitrogen [2] [Å²] | collision cross section in nitrogen [4] [Å²] | also measured
1 | – | Cc1c(C(=O)NCCO)[n+]([O-])c2ccccc2[n+]1[O-] [Olaquindox] | 161.2 | – | – | –
2 | – | CCCCCCCC/C=C\CCCCCCCC(=O)O [Oleic acid] | 176.3 | – | – | –
3 | 200.6 | CCCCCCCC/C=C\CCCCCCCC(=O)N(C)CC(=O)O [Oleyl sarcosine] | 191.2 | 200.7 | 196 | –
4 | – | CCCCCc1cc(O)cc(O)c1 [Olivetol] | 148.5 | – | – | –
5 | – | CNC(=O)CSP(=O)(OC)OC [Omethoate] | – | 137.1 | 145.9 | –
6 | – | CCCN(CCC)c1c([N+](=O)[O-])cc(S(N)(=O)=O)cc1[N+](=O)[O-] [Oryzalin] | 177.3 | – | – | –
7 | – | CC(C)Oc1cc(-n2nc(C(C)(C)C)oc2=O)c(Cl)cc1Cl [Oxadiazon] | 177.1 | – | – | –
8 | – | COCC(=O)N(c1c(C)cccc1C)N1CCOC1=O [Oxadixyl] | – | – | 167.1 | –
9 | – | CNC(=O)ON=C(SC)C(=O)N(C)C [Oxamyl] | – | – | 150.9 | –
10 | 154.8 | NC(=O)N1c2ccccc2CC(=O)c2ccccc21 [Oxcarbazepine] | – | 153.9 | 162.4 | –
11 | 178.2 | COC(=O)Nc1nc2cc(S(=O)c3ccccc3)ccc2[nH]1 (stereo unspecified) [Oxfendazole] | 177 | 179 | 191.4 | –
12 | – | CC1=C(C(=O)Nc2ccccc2)S(=O)(=O)CCO1 [Oxycarboxin] | – | – | 168.9 | –
13 | – | CCOc1cc(Oc2ccc(C(F)(F)F)cc2Cl)ccc1[N+](=O)[O-] [Oxyfluorfen] | 172.1 | – | – | –
14 | – | O=c1[nH]c(=O)c2c[nH]nc2[nH]1 [Oxypurinol] | 122.3 | – | – | –
15 | 197.8 | CN(C)[C@@H]1C(O)=C(C(N)=O)C(=O)[C@@]2(O)C(O)=C3C(=O)c4c(O)cccc4[C@@](C)(O)[C@H]3[C@H](O)[C@@H]12 [Oxytetracycline hydrochloride] | 198.4 | 199.9 | 207.7 | –
16 | 171.5 | CC(C)(C)[C@H](O)[C@H](Cc1ccc(Cl)cc1)n1cncn1 [Paclobutrazol] | – | – | 189.4 | –
17 | 185.2 | COc1ccnc(CS(=O)c2nc3cc(OC(F)F)ccc3[nH]2)c1OC (stereo unspecified) [Pantoprazole sodium] | 187 | 185.5 | 185.5 | –
18 | 149.6 | CCOC(=O)c1ccc(N(C)C)cc1 [Parbenate] | – | 149.3 | – | –
19 | – | CCC(CC)Nc1c([N+](=O)[O-])cc(C)c(C)c1[N+](=O)[O-] [Pendimethalin] | 163.7 | – | – | –
20 | 182.1 | CC1(C)S[C@@H]2[C@H](NC(=O)COc3ccccc3)C(=O)N2[C@H]1C(=O)O [Penicillin VK] | – | 182 | 184.1 | –
21 | – | Nc1c(Cl)c(Cl)c(Cl)c(Cl)c1Cl [Pentachloroaniline] | 138.4 | – | – | –
22 | – | C=CC(=O)OCC(CO)(COC(=O)C=C)COC(=O)C=C [Pentaerythritol triacrylate] | – | – | 165.1 | –
23 | – | OCCOCCOCCOCCOCCO [Pentaethylene glycol] | – | – | 150.1 | –
24 | 177.4 | N=C(N)c1ccc(OCCCCCOc2ccc(C(=N)N)cc2)cc1 [Pentamidine isethionate] | – | – | 183.2 | –
25 | – | N=C(N)c1ccc(OCCCCCOc2ccc(C(=N)N)cc2)cc1 [Pentamidine] | – | 176.9 | – | –
26 | – | O=S(=O)(O)C(F)(F)C(F)(F)C(F)(F)C(F)(F)F [Perfluorobutanesulfonic acid] | 133.8 | – | – | –

Row | collision cross section in nitrogen [3] [Å²] | Compound | collision cross section in nitrogen [1] [Å²] | collision cross section in nitrogen [2] [Å²] | collision cross section in nitrogen [4] [Å²] | also measured
27 | – | O=C(O)C(F)(F)C(F)(F)C(F)(F)C(F)(F)C(F)(F)C(F)(F)C(F)(F)C(F)(F)C(F)(F)F [Perfluorodecanoic acid] | 175.1 | – | – | –
28 | – | O=C(O)C(F)(F)C(F)(F)C(F)(F)C(F)(F)C(F)(F)C(F)(F)C(F)(F)C(F)(F)F [Perfluorononanoic acid] | 166.1 | – | – | –
29 | – | NS(=O)(=O)C(F)(F)C(F)(F)C(F)(F)C(F)(F)C(F)(F)C(F)(F)C(F)(F)C(F)(F)F [Perfluorooctanesulfonamide] | 170.4 | – | – | –
30 | – | O=S(=O)(O)C(F)(F)C(F)(F)C(F)(F)C(F)(F)C(F)(F)C(F)(F)C(F)(F)C(F)(F)F [Perfluorooctanesulfonic acid] | 168.7 | – | – | –
31 | – | O=C(O)C(F)(F)C(F)(F)C(F)(F)C(F)(F)C(F)(F)C(F)(F)C(F)(F)F [Perfluorooctanoic acid] | 157 | – | – | –
32 | – | O=C(O)C(F)(F)C(F)(F)C(F)(F)C(F)(F)C(F)(F)C(F)(F)C(F)(F)C(F)(F)C(F)(F)C(F)(F)F [Perfluoroundecanoic acid] | 183.9 | – | – | –
33 | 189.7 | CCC[C@H](N[C@@H](C)C(=O)N1[C@H](C(=O)O)C[C@@H]2CCCC[C@@H]21)C(=O)OCC [Perindopril erbumine] | 190.7 | – | 196.4 | –
34 | 141.5 | CCOc1ccc(NC(C)=O)cc1 [Phenacetin] | – | 141.4 | – | –
35 | 150.3 | Nc1ccc(N=Nc2ccccc2)c(N)n1 [Phenazopyridine hydrochloride] | 148.1 | 150 | – | –
36 | – | CCC1(c2ccccc2)C(=O)N=C(O)NC1=O (stereo unspecified) [Phenobarbital sodium] | 150.4 | – | – | –
37 | 179.8 | O=S1(=O)OC(c2ccc(O)cc2)(c2ccc(O)cc2)c2ccccc21 [Phenol Red sodium salt] | 181.8 | – | – | –
38 | – | O=S1(=O)OC(c2ccc(O)cc2)(c2ccc(O)cc2)c2ccccc21 [Phenol red] | 182 | – | – | –
39 | 173.9 | O=C1OC(c2ccc(O)cc2)(c2ccc(O)cc2)c2ccccc21 [Phenolphthalein] | 176.2 | 173.8 | 191.8 | –
40 | – | O=C(O)c1ccccc1C(c1ccc(O)cc1)c1ccc(O)cc1 [Phenolphthalin] | 184.1 | – | – | –
41 | – | c1ccc2c(c1)Nc1ccccc1S2 [Phenothiazine] | – | – | – | collision cross section in nitrogen (ion type: [M+], ion source: APCI, ion mode: Positive): 136 Å²
42 | – | CCOC(=O)C(SP(=S)(OC)OC)c1ccccc1 (stereo unspecified) [Phenthoate] | – | – | 175.1 | –
43 | – | O=C(Oc1ccccc1)c1ccccc1O [Phenyl salicylate] | 145.7 | – | – | –
44 | – | O=C(Oc1ccccc1)c1ccc(O)cc1 [Phenylparaben] | 150.3 | – | – | –
45 | – | O=P(O)(O)c1ccccc1 [Phenylphosphonic acid] | 130.1 | – | – | –
46 | – | CCOP(=S)(OCC)SCS(=O)(=O)CC [Phorate sulfone] | – | – | 162.8 | –
47 | – | CCCCOP(=O)(O)OCCCC [Phosphoric acid, dibutyl ester] | 151.3 | – | – | –
48 | – | CCOP(=S)(OCC)ON=C(C#N)c1ccccc1 [Phoxim] | 165.7 | – | – | –
49 | – | CO/C=C(/C(=O)OC)c1ccccc1COc1cccc(C(F)(F)F)n1 [Picoxystrobin] | – | – | 179.3 | –
50 | – | CCOc1ccc2c(ccc(C=Cc3cccc([N+](=O)[O-])c3)[n+]2C)c1 [Pinakryptol Yellow] | – | – | – | collision cross section in nitrogen (ion source: ESI, ion mode: Positive, ion type: [M]+ (permanent cation)): 189.2 Å²
51 | 178.9 | CCc1ccc(CCOc2ccc(CC3SC(=O)NC3=O)cc2)nc1 (stereo unspecified) [Pioglitazone hydrochloride] | 176.4 | 178.8 | 186.7 | –

Row | Compound | collision cross section in nitrogen [3] [Å²] | collision cross section in nitrogen [1] [Å²] | collision cross section in nitrogen [2] [Å²] | collision cross section in nitrogen [4] [Å²] | also measured
52 | O=C1Nc2ccc(Cl)cc2C(c2ccccc2)=NC1O (stereo unspecified) [Oxazepam] | 163.7 | 162.7 | 163.5 | 180 | –
53 | CCn1cc(C(=O)O)c(=O)c2cc3c(cc21)OCO3 [Oxolinic acid] | 152.3 | – | 152.6 | 165 | –
54 | OC(c1ccc(Cl)cc1)(c1ccc(Cl)cc1)c1cccnc1 [Parinol] | 183.1 | 177.2 | 183.7 | – | –
55 | CCCC(Cn1cncn1)c1ccc(Cl)cc1Cl (stereo unspecified) [Penconazole] | 166.1 | – | 166.3 | – | –
56 | O=C(Nc1ccccc1)N(Cc1ccc(Cl)cc1)C1CCCC1 [Pencycuron] | 180.5 | 185.7 | 180.7 | 192.8 | –
57 | COc1cnc(OC)n2nc(NS(=O)(=O)c3c(OCC(F)F)cccc3C(F)(F)F)nc12 [Penoxsulam] | 195.6 | 193.3 | 196 | 198.5 | –
58 | C=CC(=O)OCC(COC(=O)C=C)(COC(=O)C=C)COC(=O)C=C [Pentaerythritol tetraacrylate] | 172.6 | – | – | 178.8 | –
59 | CCOP(=O)(N=C1SCCS1)OCC [Phosfolan] | 150.2 | – | 150.2 | 165.3 | –
60 | Cc1cccc(OP(=O)(Oc2cccc(C)c2)Oc2cccc(C)c2)c1 [Phosphoric acid, tris(3-methylphenyl) ester] | 188.6 | – | 188.7 | 198.9 | –
61 | CNC(=O)Oc1ccc2c(c1)[C@]1(C)CCN(C)[C@@H]1N2C [Physostigmine] | 169.8 | – | 169.6 | 169.6 | –
62 | O=c1[nH]c2ccccc2n1C1CCN(CCCC(c2ccc(F)cc2)c2ccc(F)cc2)CC1 [Pimozide] | 211.8 | 215.8 | 211.9 | 217.6 | –
63 | CCc1cc(C)cc(CC)c1-c1c(OC(=O)C(C)(C)C)n2n(c1=O)CCOCC2 [Pinoxaden] | 196.6 | – | 196.5 | 202.8 | –
